± gives the expanded uncertainty stated by the source.
Assay: mn = molality of the nth substance listed, in mol/kg
Settings: 101 kPa, Liquid; for speed of sound: Linear variable-path acoustic interferometer; for mass density: Pycnometric method; for viscosity: Capillary tube (Ostwald / Ubbelohde) method

Structure (SMILES): O=[N+]([O-])[O-].O=[N+]([O-])[O-].[Mg+2] [magnesium nitrate] + O
- speed of sound (293.15 K, m1 = 2.131): 1656.3 ± 2 m/s
- speed of sound (293.15 K, m1 = 2.493): 1682.1 ± 2 m/s
- speed of sound (293.15 K, m1 = 2.793): 1705.3 ± 2 m/s
- speed of sound (293.15 K, m1 = 3.118): 1728.1 ± 2 m/s
- speed of sound (293.15 K, m1 = 3.17): 1736.5 ± 2 m/s
- speed of sound (293.15 K, m1 = 3.501): 1755.4 ± 2 m/s
- speed of sound (293.15 K, m1 = 3.757): 1771.3 ± 2 m/s
- speed of sound (293.15 K, m1 = 4.051): 1787.5 ± 2 m/s
- speed of sound (293.15 K, m1 = 4.285): 1802.4 ± 2.1 m/s
- speed of sound (293.15 K, m1 = 4.403): 1809.3 ± 2.1 m/s
- speed of sound (293.15 K, m1 = 4.883): 1838.8 ± 2.1 m/s
- mass density (295.75 K, m1 = 0.3405): 1032.9 ± 0.6 kg/m3
- mass density (296 K, m1 = 5.134): 1404.4 ± 1 kg/m3
- mass density (297.5 K, m1 = 3.501): 1299.9 ± 1.1 kg/m3
- mass density (297.65 K, m1 = 0.5931): 1057.4 ± 0.6 kg/m3
- mass density (297.85 K, m1 = 4.285): 1350.5 ± 0.8 kg/m3
- mass density (297.9 K, m1 = 3.17): 1281.3 ± 1.2 kg/m3
- mass density (298.1 K, m1 = 2.493): 1225.2 ± 0.8 kg/m3
- viscosity (298.15 K, m1 = 0.0145): 0.9075 ± 0.012 mPa·s
- viscosity (298.15 K, m1 = 0.0528): 0.9227 ± 0.012 mPa·s
- viscosity (298.15 K, m1 = 0.2491): 0.9713 ± 0.013 mPa·s
- viscosity (298.15 K, m1 = 0.5931): 1.079 ± 0.014 mPa·s
- viscosity (298.15 K, m1 = 0.9898): 1.232 ± 0.016 mPa·s
- viscosity (298.15 K, m1 = 1.262): 1.366 ± 0.018 mPa·s
- viscosity (298.15 K, m1 = 1.827): 1.662 ± 0.022 mPa·s
- viscosity (298.15 K, m1 = 2.131): 1.842 ± 0.024 mPa·s
- viscosity (298.15 K, m1 = 2.584): 2.206 ± 0.029 mPa·s
- viscosity (298.15 K, m1 = 3.096): 2.665 ± 0.035 mPa·s
- viscosity (298.15 K, m1 = 3.329): 2.921 ± 0.039 mPa·s
- viscosity (298.15 K, m1 = 3.704): 3.367 ± 0.045 mPa·s
- viscosity (298.15 K, m1 = 4.039): 3.889 ± 0.052 mPa·s
- viscosity (298.15 K, m1 = 4.728): 5.349 ± 0.071 mPa·s
- viscosity (298.15 K, m1 = 4.907): 5.933 ± 0.079 mPa·s
- viscosity (298.15 K, m1 = 5.282): 7.034 ± 0.093 mPa·s
- speed of sound (298.15 K, m1 = 0.0145): 1498.3 ± 1.9 m/s
- speed of sound (298.15 K, m1 = 0.0528): 1500.5 ± 1.9 m/s
- speed of sound (298.15 K, m1 = 0.2491): 1514.9 ± 1.9 m/s
- speed of sound (298.15 K, m1 = 0.3405): 1519 ± 1.9 m/s
- speed of sound (298.15 K, m1 = 0.6173): 1540.9 ± 1.9 m/s
- speed of sound (298.15 K, m1 = 0.896): 1563 ± 1.9 m/s
- speed of sound (298.15 K, m1 = 0.9898): 1570.8 ± 1.9 m/s
- speed of sound (298.15 K, m1 = 1.262): 1590 ± 1.9 m/s
- speed of sound (298.15 K, m1 = 1.525): 1611.1 ± 1.9 m/s
- speed of sound (298.15 K, m1 = 1.827): 1637.3 ± 1.9 m/s
- speed of sound (298.15 K, m1 = 2.131): 1660.5 ± 2 m/s
- speed of sound (298.15 K, m1 = 2.493): 1685.3 ± 2 m/s
- speed of sound (298.15 K, m1 = 2.793): 1706.5 ± 2 m/s
- speed of sound (298.15 K, m1 = 3.118): 1728.8 ± 2 m/s
- speed of sound (298.15 K, m1 = 3.17): 1736.6 ± 2 m/s
- speed of sound (298.15 K, m1 = 3.501): 1754.6 ± 2 m/s
- speed of sound (298.15 K, m1 = 3.757): 1774.2 ± 2 m/s
- speed of sound (298.15 K, m1 = 4.051): 1786.2 ± 2 m/s
- speed of sound (298.15 K, m1 = 4.285): 1800.3 ± 2.1 m/s
- speed of sound (298.15 K, m1 = 4.403): 1806.6 ± 2.1 m/s
- speed of sound (298.15 K, m1 = 4.883): 1831.8 ± 2.1 m/s
- speed of sound (298.15 K, m1 = 5.134): 1855.2 ± 2.1 m/s
- mass density (298.2 K, m1 = 5.134): 1402.9 ± 1 kg/m3
- mass density (298.5 K, m1 = 4.051): 1333.6 ± 0.8 kg/m3
- mass density (299.15 K, m1 = 0.0145): 998.05 ± 0.63 kg/m3
- mass density (299.35 K, m1 = 0.0528): 1002.2 ± 0.7 kg/m3
- mass density (299.6 K, m1 = 0.3405): 1031.8 ± 0.6 kg/m3
- mass density (299.75 K, m1 = 2.131): 1196.1 ± 0.8 kg/m3
- mass density (299.8 K, m1 = 3.501): 1298.5 ± 0.9 kg/m3
- mass density (299.95 K, m1 = 4.728): 1377.8 ± 0.8 kg/m3
- mass density (300.1 K, m1 = 3.17): 1280 ± 0.9 kg/m3
- mass density (300.15 K, m1 = 4.883): 1384.4 ± 0.9 kg/m3
- mass density (300.3 K, m1 = 4.285): 1349 ± 0.9 kg/m3
- mass density (300.35 K, m1 = 2.493): 1223.9 ± 0.8 kg/m3
- mass density (300.5 K, m1 = 0.9898): 1095.4 ± 0.8 kg/m3
- mass density (300.5 K, m1 = 5.134): 1401.4 ± 1 kg/m3
- mass density (300.75 K, m1 = 2.584): 1232 ± 0.8 kg/m3
- mass density (300.75 K, m1 = 4.039): 1332.1 ± 0.9 kg/m3
- mass density (300.85 K, m1 = 4.051): 1332.2 ± 0.9 kg/m3
- mass density (300.9 K, m1 = 0.896): 1085.9 ± 0.7 kg/m3
- mass density (300.95 K, m1 = 0.5931): 1056.2 ± 0.7 kg/m3
- mass density (300.95 K, m1 = 1.262): 1119.4 ± 0.7 kg/m3
- mass density (300.95 K, m1 = 2.793): 1247.4 ± 0.8 kg/m3
- mass density (301 K, m1 = 4.97): 1390.1 ± 1 kg/m3
- mass density (301.05 K, m1 = 3.704): 1311.3 ± 0.9 kg/m3
- mass density (301.1 K, m1 = 1.525): 1142.4 ± 0.7 kg/m3
- mass density (301.25 K, m1 = 4.403): 1355.4 ± 0.8 kg/m3
- mass density (301.6 K, m1 = 0.2491): 1022.3 ± 0.7 kg/m3

Source: the NIST ThermoML archive (doi:10.1021/je060107n)
